According to US20240368177A1, “5-AMINO-6,8-DIHYDRO-1H-FURO[3,4-d]PYRROLO[3,2-b]PYRIDINE-2-CARBOXAMIDE DERIVATIVES AS MTA-COOPERATIVE INHIBITORS OF PRMT5” (BeiGene Switzerland GmbH, priority 2023, published 2024):

Legend:
[1] = tested on: HCT116-mock-RNA-KO; assay: Cell killing in HCT116 isogenic pair (Cell Titer-Glo viability), mock knock-out cells with MTAP wildtype genotype; type: cell-based, human; conditions: Homo sapiens, HCT-116, 144 h, 6 days incubation, 0-10 μM
Description: (§1) HCT116 cell line (ATCC, CCL-247) was isolated from the colon of an adult with colon cancer. It has a mutation in codon 13 of the ras proto-oncogene and can be used as a positive control for PCR assays of mutation in this codon. HCT116-MTAP-KO was knocked-out-MTAP-gene based HCT116, and a single clone was passed for this assay. HCT116-mock-RNA-KO was knocked-out-mock-gene based HCT116 with MTAP wildtype genotype. The base medium for HCT116 isogenic pair is RPMI 1640, HEPES (Gibco, 22400105). To make the complete growth medium, added the following components to the base medium: fetal bovine serum to a final concentration of 10% (Gibco, 10099-141C). The cell line was grown in a humidified 5% CO2 atmosphere at 37° C. and regularly tested for the presence of mycoplasma with MpcoAlert™ PLUS Mycoplasma Detection Kit (Lonzak LT07-710).
(§2) • Seeded HCT116-mock-RNA-KO (4E2/well) or HCT116-MTAP-KO (4E2/well) cells into a 96-well plate (Greiner: 655090), 100 μL/well. • Incubated at 37° C., 5% CO2, overnight. • Added 50 μL fresh growth medium containing serial dilution of test compounds for a final test compound concentration of 0-10 μM to each well. • Incubated at 37° C., 5% CO2, 6 days. • The cell viability was detected by Cell Titer-Glo (Promega, G7573). Added 70 μL of CeliTiter-Glo® reagent in each well. • Incubated at room temperature for 10 minutes to stabilize luminescent signal. • Analyzed with Microplate Reader (TECAN, SPARK) and fit IC50 using Prism® 9.

[2] = tested on: HCT116-MTAP-KO; assay: Cell killing in HCT116 isogenic pair (Cell Titer-Glo viability), MTAP knock-out cells; type: cell-based, human; conditions: Homo sapiens, HCT-116, 144 h, 6 days incubation, 0-10 μM, * = more than 50% viability inhibition at tested concentration without a full curve
Description: as §1, §2

SMILES | IC50 [1] | IC50 [2]
Nc1nc2cc(C(=O)N(Cc3ccc(-c4c(F)cncc4F)cn3)[C@@H]3CCCc4cccnc43)[nH]c2c2c1COC2 [Example 1, (R)-5-amino-N-((3′,5′-difluoro-[3,4′-bipyridin]-6-yl)methyl)-N-(5,6,7,8-tetrahydroquinolin-8-yl)-6,8-dihydro-1H-furo[3,4-d]pyrrolo[3,2-b]pyridine-2-carboxamide] | 4.6 nM | < 1.5 nM
Nc1nc2cc(C(=O)N(Cc3ccc(-c4c(F)cccc4F)cn3)[C@@H]3CCCc4cccnc43)[nH]c2c2c1COC2 [Example 2, (R)-5-amino-N-((5-(2,6-difluorophenyl)pyridin-2-yl)methyl)-N-(5,6,7,8-tetrahydroquinolin-8-yl)-6,8-dihydro-1H-furo[3,4-d]pyrrolo[3,2-b]pyridine-2-carboxamide] | 23 nM | 3.3 nM
Nc1nc2cc(C(=O)N(Cc3c(F)cccc3F)Cc3c(F)cccc3F)[nH]c2c2c1COC2 [Example 3, 5-amino-N,N-bis(2,6-difluorobenzyl)-6,8-dihydro-1H-furo[3,4-d]pyrrolo[3,2-b]pyridine-2-carboxamide] | 221 nM | 2.4 nM
CO[C@@H]1CCOC[C@H]1N(Cc1ccc(-c2c(F)cccc2F)cn1)C(=O)c1cc2nc(N)c3c(c2[nH]1)COC3 [Example 4, 5-amino-N-((5-(2,6-difluorophenyl)pyridin-2-yl)methyl)-N-((3R,4R)-4-methoxytetrahydro-2H-pyran-3-yl)-6,8-dihydro-1H-furo[3,4-d]pyrrolo[3,2-b]pyridine-2-carboxamide] | 99 nM | 2.3 nM
Nc1nc2cc(C(=O)N(Cc3c(F)cccc3F)[C@@H]3CCCc4cccnc43)[nH]c2c2c1COC2 [Example 5, (R)-5-amino-N-(2,6-difluorobenzyl)-N-(5,6,7,8-tetrahydroquinolin-8-yl)-6,8-dihydro-1H-furo[3,4-d]pyrrolo[3,2-b]pyridine-2-carboxamide] | 76 nM | 4 nM
Nc1nc2cc(C(=O)N(Cc3ccc(-c4c(F)cccc4F)cc3F)[C@@H]3CCCc4cccnc43)[nH]c2c2c1COC2 [Example 6, (R)-5-amino-N-(5,6,7,8-tetrahydroquinolin-8-yl)-N-((2′,3,6′-trifluoro-[1,1′-biphenyl]-4-yl)methyl)-6,8-dihydro-1H-furo[3,4-d]pyrrolo[3,2-b]pyridine-2-carboxamide] | 40 nM | 11 nM
Nc1nc2cc(C(=O)N(Cc3ncccc3F)Cc3ncccc3F)[nH]c2c2c1COC2 [Example 7, 5-amino-N,N-bis((3-fluoropyridin-2-yl)methyl)-6,8-dihydro-1H-furo[3,4-d]pyrrolo[3,2-b]pyridine-2-carboxamide] | 3140 nM | 30 nM
COCC(C)N(Cc1c(F)cccc1F)C(=O)c1cc2nc(N)c3c(c2[nH]1)COC3 (centres unmarked) [Example 8, 5-amino-N-(2,6-difluorobenzyl)-N-(1-methoxypropan-2-yl)-6,8-dihydro-1H-furo[3,4-d]pyrrolo[3,2-b]pyridine-2-carboxamide] | 2750 nM | 34 nM
COCC(COC)N(Cc1c(F)cccc1F)C(=O)c1cc2nc(N)c3c(c2[nH]1)COC3 [Example 9, 5-amino-N-(2,6-difluorobenzyl)-N-(1,3-dimethoxypropan-2-yl)-6,8-dihydro-1H-furo[3,4-d]pyrrolo[3,2-b]pyridine-2-carboxamide] | 3440 nM | 46 nM
Nc1nc2cc(C(=O)N(Cc3c(F)cncc3F)[C@@H]3CCCc4cccnc43)[nH]c2c2c1COC2 [Example 10, (R)-5-amino-N-((3,5-difluoropyridin-4-yl)methyl)-N-(5,6,7,8-tetrahydroquinolin-8-yl)-6,8-dihydro-1H-furo[3,4-d]pyrrolo[3,2-b]pyridine-2-carboxamide] | 247 nM | 4.6 nM
N#Cc1cnccc1-c1ccc(CN(C(=O)c2cc3nc(N)c4c(c3[nH]2)COC4)[C@@H]2CCCc3cccnc32)nc1 [Example 11, (R)-5-amino-N-((3′-cyano-[3,4′-bipyridin]-6-yl)methyl)-N-(5,6,7,8-tetrahydroquinolin-8-yl)-6,8-dihydro-1H-furo[3,4-d]pyrrolo[3,2-b]pyridine-2-carboxamide] | 69 nM | 3.8 nM
Nc1nc2cc(C(=O)N(Cc3ccc(-c4c(F)cccc4F)cn3)[C@@H]3CCOc4ccccc43)[nH]c2c2c1COC2 [Example 12, 5-amino-N-(chroman-4-yl)-N-((5-(2,6-difluorophenyl)pyridin-2-yl)methyl)-6,8-dihydro-1H-furo[3,4-d]pyrrolo[3,2-b]pyridine-2-carboxamide] | 1910 nM | 29 nM
Nc1nc2cc(C(=O)N(Cc3ccc(-c4c(F)cccc4F)cn3)Cc3c(F)cccc3F)[nH]c2c2c1COC2 [Example 13, 5-amino-N-(2,6-difluorobenzyl)-N-((5-(2,6-difluorophenyl)pyridin-2-yl)methyl)-6,8-dihydro-1H-furo[3,4-d]pyrrolo[3,2-b]pyridine-2-carboxamide] | 251 nM | 4.6 nM
CO[C@@H]1CCOC[C@H]1N(Cc1ccc(-c2c(F)cccc2F)cc1F)C(=O)c1cc2nc(N)c3c(c2[nH]1)COC3 [Example 14, 5-amino-N-((3R,4R)-4-methoxytetrahydro-2H-pyran-3-yl)-N-((2′,3,6′-trifluoro-[1,1′-biphenyl]-4-yl)methyl)-6,8-dihydro-1H-furo[3,4-d]pyrrolo[3,2-b]pyridine-2-carboxamide] | 554 nM | < 1.5 nM
CO[C@@H]1CCOC[C@H]1N(Cc1ccc(-c2c(F)cncc2F)cn1)C(=O)c1cc2nc(N)c3c(c2[nH]1)COC3 [Example 15, 5-amino-N-((3′,5′-difluoro-[3,4′-bipyridin]-6-yl)methyl)-N-((3R,4R)-4-methoxytetrahydro-2H-pyran-3-yl)-6,8-dihydro-1H-furo[3,4-d]pyrrolo[3,2-b]pyridine-2-carboxamide] | 225 nM | 8.1 nM
COCC(COC)N(Cc1ccc(-c2c(F)cccc2F)cn1)C(=O)c1cc2nc(N)c3c(c2[nH]1)COC3 [Example 16, 5-amino-N-((5-(2,6-difluorophenyl)pyridin-2-yl)methyl)-N-(1,3-dimethoxypropan-2-yl)-6,8-dihydro-1H-furo[3,4-d]pyrrolo[3,2-b]pyridine-2-carboxamide] | 165 nM | 1 nM
C[C@@H](c1ncccn1)N(Cc1ccc(-c2c(F)cccc2F)cn1)C(=O)c1cc2nc(N)c3c(c2[nH]1)COC3 [Example 17, (S)-5-amino-N-((5-(2,6-difluorophenyl)pyridin-2-yl)methyl)-N-(1-(pyrimidin-2-yl)ethyl)-6,8-dihydro-1H-furo[3,4-d]pyrrolo[3,2-b]pyridine-2-carboxamide] | 1050 nM | 8.2 nM
C[C@H](c1ncccn1)N(Cc1ccc(-c2c(F)cccc2F)cn1)C(=O)c1cc2nc(N)c3c(c2[nH]1)COC3 [Example 18, (R)-5-amino-N-((5-(2,6-difluorophenyl)pyridin-2-yl)methyl)-N-(1-(pyrimidin-2-yl)ethyl)-6,8-dihydro-1H-furo[3,4-d]pyrrolo[3,2-b]pyridine-2-carboxamide] | 96 nM | 1.8 nM
Nc1nc2cc(C(=O)N(Cc3ccc(-c4c(F)cccc4F)cc3F)[C@@H]3CCOc4cccnc43)[nH]c2c2c1COC2 [Example 19, (R)-5-amino-N-(3,4-dihydro-2H-pyrano[3,2-b]pyridin-4-yl)-N-((2′,3,6′-trifluoro-[1,1′-biphenyl]-4-yl)methyl)-6,8-dihydro-1H-furo[3,4-d]pyrrolo[3,2-b]pyridine-2-carboxamide] | 185 nM | < 1.5 nM
Nc1nc2cc(C(=O)N(Cc3ccc(-c4c(F)cccc4F)cc3F)[C@H]3CCOc4cccnc43)[nH]c2c2c1COC2 [Example 20, (S)-5-amino-N-(3,4-dihydro-2H-pyrano[3,2-b]pyridin-4-yl)-N-((2′,3,6′-trifluoro-[1,1′-biphenyl]-4-yl)methyl)-6,8-dihydro-1H-furo[3,4-d]pyrrolo[3,2-b]pyridine-2-carboxamide] | 4000 nM | 658 nM
N#Cc1cc(F)c(CN(C(=O)c2cc3nc(N)c4c(c3[nH]2)COC4)[C@@H]2CCCc3cccnc32)c(F)c1 [Example 21, (R)-5-amino-N-(4-cyano-2,6-difluorobenzyl)-N-(5,6,7,8-tetrahydroquinolin-8-yl)-6,8-dihydro-1H-furo[3,4-d]pyrrolo[3,2-b]pyridine-2-carboxamide] | 7 nM | < 1.5 nM
N#Cc1cc(F)c(CN(Cc2c(F)cccc2F)C(=O)c2cc3nc(N)c4c(c3[nH]2)COC4)c(F)c1 [Example 22, 5-amino-N-(4-cyano-2,6-difluorobenzyl)-N-(2,6-difluorobenzyl)-6,8-dihydro-1H-furo[3,4-d]pyrrolo[3,2-b]pyridine-2-carboxamide] | 11 nM | < 1.5 nM
